Source: US8501911B2, “Methods of reducing inflammation and mucus hypersecretion” (Biomarck Pharmaceuticals, Ltd, priority 1999, dated 2013)
“And” between values parts separate entries of the source, which are not always exact repeats. Identical values can stand only once. Like-named read-outs stand apart in the source and are kept apart here. Residues, ends and D or L forms follow the SMILES beside them. *: point of attachment. Myristoyl = CCCCCCCCCCCCCC(=O)*

What was measured:
NHBE cells [1] = assay: Mucin secretion from NHBE cells exposed to kinase activators/reagents alone (ELISA); type: cell-based, human; settings: for Mucin secretion as percent of control: 15 min
Method: To determine the potential role of PKC and/or PKG in the mucin secretory process, NHBE cells were exposed to the following two specific protein kinase activators: the phorbol ester, phorbol 12-myristate 13-acetate (PMA), for activation of PKC, and the nonhydrolyzable cGMP analogue, 8-Br-cGMP, for activation of PKG.
NHBE Cell Culture—Expansion, cryopreservation, and culture of NHBE cells in the air/liquid interface were performed as described previously. See, Krunkosky et al. Briefly, NHBE cells (Clonetics, San Diego, Calif.) were seeded in vented T75 tissue culture flasks (500 cells/cm^2) and cultured until cells reached 75-80% confluence. Cells were then dissociated by trypsin/EDTA and frozen as passage-2. Air/liquid interface culture was initiated by seeding passage-2 cells (2×10^4 cells/cm^2) in […]® clear culture inserts (Costar, Cambridge, Mass.) that were thinly coated with rat tail collagen, type 1 (Collaborative Biomedical, Bedford, Mass.). Cells were cultured submerged in medium in a humidified 95% air, 5% CO2 environment for 5-7 days until nearly confluent. At that time, the air/liquid interface was created by removing the apical medium and feeding cells basalaterally. Medium was renewed daily thereafter. Cells were cultured for an additional 14 days to allow for full differentiation.
Measurement of Mucin Secretion by ELISA—Before collection of “base line” and “test” mucin samples, the accumulated mucus at the apical surface of the cells was removed by washing with phosphate-buffered saline, pH 7.2. To collect the base-line secretion, cells were incubated with medium alone, and secreted mucin in the apical medium was collected and reserved. Cells were rested for 24 h and then exposed to medium containing the selected stimulatory and/or inhibitory reagents (or appropriate controls), after which secreted mucin was collected and reserved as the test sample. Incubation times for the base line and the test were the same but varied depending on the test reagent utilized. Both base line and test secretions were analyzed by ELISA using an antibody capture method as known in the art. See, e.g., Harlow et al., Antibodies: A Laboratory Manual, pp. 570-573, Cold Spring Harbor Laboratory, Cold Spring Harbor, N.Y. (1988). The primary antibody for this assay was 17Q2 (Babco, Richmond, Calif.), a monoclonal antibody that reacts specifically with a carbohydrate epitope on human airway mucins. […] Wright et al., Am. J. Physiol. 271, L854-L861 (1996). Levels of mucin secretion were reported as percentage of the medium control.
Mucus secreted from the airway epithelial cells in vitro after stimulation by activators was assessed using an ELISA (antibody capture method) (E. Harlow, D. Lane. “Antibodies: A Laboratory Manual.” New York: Cold Spring Harbor Laboratory Press, 1988), wherein the collected mucus is bound directly to the ELISA plate. Mucus was detected using an antibody raised against monkey airway mucus (Lin et al. Am J Respir Cell Mol Biol 1:41, 1989).

NHBE cells [2] = assay: UTP-induced mucin secretion from NHBE cells (ELISA); type: cell-based, human; settings: for Mucin secretion, % of control levels: co-incubation with 0.1 mM UTP 45 min
Method: In Results-I-1D, NHBE cells were preincubated with the indicated inhibitor for 15 min and then stimulated with 100 μM UTP for 2 h. Secreted mucin in response to the treatment was collected and assayed by ELISA. Data are presented as mean±S.E. (n=6 at each point).
UTP is a well defined pathophysiologically relevant mucin secretagogue. Lethem ct al., Am. J. Respir. Cell Mol. Biol. 9, 315-322 (1993). […] To determine whether PKC and PKG were involved in regulation of mucin secretion in response to a pathophysiological stimulus, effects of PKC/PKG inhibitors on UTP-induced mucin secretion were investigated. NHBE cells were preincubated with various inhibitors for 15 min and then exposed to UTP (100 μM) plus the inhibitor for 2 h. The secreted mucin was measured by ELISA. […] Apparently, mucin secretion in NHBE cells may be regulated by a signaling mechanism involving both PKC and PKG.
Peptide Blocking Studies—NHBE cells were preincubated with either the MANS or the RNS peptide (1-100 μM) for 15 min, and then PMA (100 nM)+8-Br-cGMP (1 μM) or UTP (100 μM) was added, and cells were incubated for an additional 15 min or 2 h. respectively. Mucin secretion was measured by ELISA and experimental results are designated as Results-I-2B-1 and Results-I-2B-2, as follows.
PP2A is an essential component of the mucin secretory pathway. NHBE cells were preincubated with the indicated concentration of fostriecin, okadaic acid (500 nM), or medium alone for 15 min and then stimulated with PMA (100 nM)+8-Br-cGMP (1 μM) for 15 min or with UTP (100 μM) for 2 h. Secreted mucin was measured by ELISA. […] Thus, dephosphorylation of MARCKS by a PKG-activated PP2A appears to be an essential component of the signaling pathway leading to mucin granule exocytosis.
Measurement of Mucin Secretion by ELISA—Before collection of “base line” and “test” mucin samples, the accumulated mucus at the apical surface of the cells was removed by washing with phosphate-buffered saline, pH 7.2. To collect the base-line secretion, cells were incubated with medium alone, and secreted mucin in the apical medium was collected and reserved. Cells were rested for 24 h and then exposed to medium containing the selected stimulatory and/or inhibitory reagents (or appropriate controls), after which secreted mucin was collected and reserved as the test sample. Incubation times for the base line and the test were the same but varied depending on the test reagent utilized. Both base line and test secretions were analyzed by ELISA using an antibody capture method as known in the art. See, e.g., Harlow et al., Antibodies: A Laboratory Manual, pp. 570-573, Cold Spring Harbor Laboratory, Cold Spring Harbor, N.Y. (1988). The primary antibody for this assay was 17Q2 (Babco, Richmond, Calif.), a monoclonal antibody that reacts specifically with a carbohydrate epitope on human airway mucins. The ratio of test/base-line mucin, which is similar to a “secretory index”, was used to quantify mucin secretion, allowing each culture dish to serve as its own control and thus, minimizing deviation caused by variability among culture wells. Wright et al., Am. J. Physiol. 271, L854-L861 (1996). Levels of mucin secretion were reported as percentage of the medium control.
These experiments were carried out similarly to those described in Example 7. To test for stimulated secretion, the cells were exposed apically and basolaterally to uridine 5′-triphosphate (UTP) at a concentration of 0.1 mM in media. Cells were pre-incubated for 15 minutes with the MANS peptide and test cultures were then co-incubated with the MANS peptide and UTP for 45 minutes.
NHBE cells were pre-incubated with okadaic acid (500 nM) for 15 min at 37° C./5% CO2, then stimulated with PMA (100 nM)+8-Br-cGMP (1 μM) for 15 min, or with UTP (0.1 mM) for 2 hours. Secreted mucin in the apical medium was collected and assayed by ELISA. […]

[3] = peptide 1 μM, 15 min preincubation, then UTP 100 μM 2 h
[4] = peptide 100 μM, 15 min preincubation, then UTP 100 μM 2 h
[5] = test agent 10 μM, 15 min preincubation, then UTP 100 μM 2 h

Compound: Nc1nc2c(nc(Br)n2[C@@H]2O[C@@H]3COP(=O)(O)O[C@H]3[C@H]2O)c(=O)[nH]1 [8-Br-cGMP]
- Mucin secretion as percent of control (NHBE cells [1]; reagent 1 μM alone): 109%

Compound: CCCCCCCCCCCCCC(=O)NCC(=O)N[C@@H](C)C(=O)N[C@@H](CCC(N)=O)C(=O)N[C@@H](Cc1ccccc1)C(=O)N[C@@H](CO)C(=O)N[C@@H](CCCCN)C(=O)N[C@H](C(=O)N[C@@H](C)C(=O)N[C@@H](C)C(=O)N[C@@H](CCCCN)C(=O)NCC(=O)N[C@@H](CCC(=O)O)C(=O)N[C@@H](C)C(=O)N[C@@H](C)C(=O)N[C@@H](C)C(=O)N[C@@H](CCC(=O)O)C(=O)N[C@@H](CCCNC(=N)N)C(=O)N1CCC[C@H]1C(=O)NCC(=O)N[C@@H](CCC(=O)O)C(=O)N[C@@H](C)C(=O)N[C@@H](C)C(=O)N[C@H](C(=O)N[C@@H](C)C(=O)O)C(C)C)[C@@H](C)O [MANS peptide] (Myristoyl-GAQFSKTAAKGEAAAERPGEAAVA-OH; C-terminus assumed)
- Mucin secretion as % of the level observed with 0.1 mM UTP absent MANS peptide (NHBE cells [2]; peptide 1 μM): about 90%
- Mucin secretion, % of control levels (NHBE cells [2]; peptide 1 μM, 15 min preincubation): 146%
- Mucin secretion as percent of control (NHBE cells [2]; [3]): 143%
- Mucin secretion as % of the level observed with 0.1 mM UTP absent MANS peptide (NHBE cells [2]; peptide 10 μM): about 80%
- Mucin secretion, % of control levels (NHBE cells [2]; peptide 10 μM, 15 min preincubation): 128%
- Mucin secretion as % of the level observed with 0.1 mM UTP absent MANS peptide (NHBE cells [2]; peptide 100 μM): about 29%
- Mucin secretion, % of control levels (NHBE cells [2]; peptide 100 μM, 15 min preincubation): 46%
- Mucin secretion as percent of control (NHBE cells [2]; [4]): 46%
- Mucin secretion as percent of control (NHBE cells [2]; [5]): 125%

Compound: CCCCCCCCCCCCCC(=O)O[C@@H]1[C@@H](C)[C@@]2(O)[C@@H](C=C(CO)C[C@]3(O)C(=O)C(C)=C[C@@H]23)[C@@H]2C(C)(C)[C@]12OC(C)=O [PMA, phorbol 12-myristate 13-acetate]
- Mucin secretion as percent of control (NHBE cells [1]; reagent 100 nM alone): 123% and 122%
- Mucin secretion in response to PMA alone (NHBE cells [1]; various concentrations and times, up to 1 μM for 2 h): did not induce significant mucin secretion

Compound: CCCCCCCCCCCCCC(=O)NCC(=O)N[C@H](C(=O)N[C@@H](C)C(=O)N1CCC[C@H]1C(=O)N[C@@H](C)C(=O)N[C@@H](C)C(=O)N[C@@H](CCC(=O)O)C(=O)NCC(=O)N[C@@H](C)C(=O)NCC(=O)N[C@@H](C)C(=O)N[C@@H](CCC(=O)O)C(=O)N[C@H](C(=O)N[C@@H](CCCCN)C(=O)N[C@@H](CCCNC(=N)N)C(=O)N[C@@H](C)C(=O)N[C@@H](CO)C(=O)N[C@@H](C)C(=O)N[C@@H](CCC(=O)O)C(=O)N[C@@H](C)C(=O)N[C@@H](CCCCN)C(=O)N[C@@H](CCC(N)=O)C(=O)N[C@@H](C)C(=O)N[C@@H](Cc1ccccc1)C(=O)O)C(C)C)[C@@H](C)O [RNS peptide, reference compound] (Myristoyl-GTAPAAEGAGAEVKRASAEAKQAF-OH; C-terminus assumed)
- Mucin secretion as percent of control (NHBE cells [2]; [3]): 154%
- Mucin secretion as percent of control (NHBE cells [2]; [4]): 158%
- Mucin secretion as percent of control (NHBE cells [2]; [5]): 155%

Compound: C[C@@](O)(/C=C/[C@H]1CC=CC(=O)O1)[C@@H](C[C@@H](O)\C=C/C=C\C=C\CO)OP(=O)(O)O [fostriecin]
- activity at 0.01 µM (NHBE cells [2]; Homo sapiens, NHBE, inhibitor 10 nM, 15 min preincubation, then UTP 100 μM 2 h, read-out: Mucin secretion as percent of control): 152%
- activity at 0.1 µM (NHBE cells [2]; Homo sapiens, NHBE, inhibitor 100 nM, 15 min preincubation, then UTP 100 μM 2 h, read-out: Mucin secretion as percent of control): 134%
- activity at 0.5 µM (NHBE cells [2]; Homo sapiens, NHBE, inhibitor 500 nM, 15 min preincubation, then UTP 100 μM 2 h, read-out: Mucin secretion as percent of control): 124%

Compound: C=C1[C@@H](O)[C@@H]2O[C@]3(CC[C@H](/C=C/[C@@H](C)[C@@H]4CC(C)=C[C@@]5(O[C@H](C[C@@](C)(O)C(=O)O)CC[C@H]5O)O4)O3)CC[C@H]2O[C@@H]1[C@@H](O)C[C@H](C)[C@H]1O[C@@]2(CCCCO2)CC[C@H]1C [okadaic acid]
- activity at 0.5 µM (NHBE cells [2]; Homo sapiens, NHBE, read-out: Mucin secretion as percent of control, inhibitor 500 nM, 15 min preincubation, then UTP 100 μM 2 h): 112%
- Mucin secretion as percent of control (NHBE cells [2]; inhibitor 500 nM, 15 min preincubation, then UTP 100 μM 2 h): 110%
- Reduction in mucin secretion level from UTP-stimulated level (NHBE cells [2]; inhibitor 500 nM, UTP 0.1 mM 2 h): 31%

Compound: TNF-α
- Mucin secretion level, % of control (NHBE cells [1]; TNF-α 10 ng/ml 4 h, no secretagogue): 109%
- Mucin secretion level, % of control (NHBE cells [2]; TNF-α 10 ng/ml 4 h, then UTP 0.1 mM 2 h): 191%
